Where “and” joins values, the source holds several entries; their conditions need not be identical. Equal values may be shown once. Read-outs that look alike come from different tables or passages of the source. Marks after values point to notes of the source that are not given here.
Legend:
[1] = system: AREc32 reporter cell line (luciferase reporter under eight copies of the rat GSTA2 ARE sequence); assay: AREc32 luciferase reporter activation; assay type: cell-based, human; conditions: for EC (2-fold): Homo sapiens, read-out: AREc32 EC2X (Mean ± SD)
[2] = system: IFNγ-induced NO production in RAW 264.7 cells; assay: Nitric oxide suppression assay (IFNγ-induced NO production, Griess nitrite readout); assay type: cell-based, mouse; conditions: for IC50: Mus musculus
[3] = Arec32, concentration that increases the luminescence signal 2-fold above vehicle, 19 h treatment
[4] = RAW264.7, RAW 264.7 cells, 2 h pretreatment, 20 ng/mL interferon gamma 24 h, average of trials per footnote, read-out: NO IC50

SMILES	AREc32 EC2X Relative to RTA 402 (Mean ± SD) [1]	EC (2-fold) [1, 3]	NO IC50 Rel. to RTA 402 [2]	IC50 [2, 4]	EC (2-fold) ([1]; Arec32, 19 h)	IC50 ([2]; RAW264.7, read-out: NO IC50)	times more active (NO IC50) than 63189 relative to RTA 402 [2]
C[C@@H]1C(=O)C(C#N)=C[C@]2(C)C3=CC(=O)[C@@H]4[C@@H]5CC(C)(C)CC[C@]5(CN5CCC5=O)CC[C@@]4(C)[C@]3(C)CC[C@@H]12 [Compound T65]	0.4^e fold	0.0047 µM	0.36 ± 0.12^e fold	0.42 ± 0.13 nM	–	–	–
CC1(C)CC[C@]2(N3CCC(=O)N3)CC[C@]3(C)[C@H](C(=O)C=C4[C@@]5(C)C=C(C#N)C(=O)C(C)(C)[C@@H]5CC[C@]43C)[C@@H]2C1 [Compound T58]	5.3^e fold	0.0565 µM	2.97 ± 0.65^d fold	12.2 ± 3.32 nM	–	–	–
CC1(C)CC[C@]2(CNC(=O)CF)CC[C@]3(C)[C@H](C(=O)C=C4[C@@]5(C)C=C(C#N)C(=O)C(C)(C)[C@@H]5CC[C@]43C)[C@@H]2C1 [Compound T67]	0.3^e fold	–	0.38 ± 0.15^d fold	–	0.0033 µM	0.51 ± 0.31 nM	–
CC1(C)CC[C@]2(CNC(=O)C(C)(F)F)CC[C@]3(C)[C@H](C(=O)C=C4[C@@]5(C)C=C(C#N)C(=O)C(C)(C)[C@@H]5CC[C@]43C)[C@@H]2C1 [Compound T62]	0.3^e fold	0.0035 µM	0.51 ± 0.18^d fold	2.12 ± 0.85 nM	–	–	–
CC1(C)CC[C@]2(CNC(=O)C(F)F)CC[C@]3(C)[C@H](C(=O)C=C4[C@@]5(C)C=C(C#N)C(=O)C(C)(C)[C@@H]5CC[C@]43C)[C@@H]2C1 [Compound T63]	0.4^e fold	0.004 µM	0.36 ± 0.11^d fold	1.48 ± 0.54 nM	–	–	–
CNC[C@]12CCC(C)(C)C[C@H]1[C@H]1C(=O)C=C3[C@@]4(C)C=C(C#N)C(=O)C(C)(C)[C@@H]4CC[C@@]3(C)[C@]1(C)CC2 [Compound T6]	1.2 ± 0.35^a fold	0.0169 ± 3e-05 µM	1.60 ± 0.23^e fold	3.35 ± 1.62 nM	–	–	–
CC1(C)CC[C@]2(N3CCOC3=O)CC[C@]3(C)[C@H](C(=O)C=C4[C@@]5(C)C=C(C#N)C(=O)C(C)(C)[C@@H]5CC[C@]43C)[C@@H]2C1 [Compound T34]	2.2^e fold	0.0236 µM	1.23 ± 0.23^e fold	2.23 ± 0.57 nM	–	–	–
CCC(=O)NC[C@]12CCC(C)(C)C[C@H]1[C@H]1C(=O)C=C3[C@@]4(C)C=C(C#N)C(=O)C(C)(C)[C@@H]4CC[C@@]3(C)[C@]1(C)CC2 [Compound T53]	0.2^e fold	0.0024 µM	0.21 fold and 0.21 ± 0.05^e fold	0.38 nM	–	–	more than 19 times
CC1(C)CC[C@]2(n3cnnc3)CC[C@]3(C)[C@H](C(=O)C=C4[C@@]5(C)C=C(C#N)C(=O)C(C)(C)[C@@H]5CC[C@]43C)[C@@H]2C1 [Compound T39]	9.8 ± 1.1^a fold	0.0943 ± 0.00426 µM	42.82 ± 14.24^e fold	84.5 ± 18.9 nM	–	–	–
CC1(C)CC[C@]2(n3ccoc3=O)CC[C@]3(C)[C@H](C(=O)C=C4[C@@]5(C)C=C(C#N)C(=O)C(C)(C)[C@@H]5CC[C@]43C)[C@@H]2C1 [Compound T40]	1.8^e fold	0.0196 µM	1.37 ± 0.18^d fold	5.56 ± 0.72 nM	–	–	–
CC1(C)CC[C@]2(CN3CC4(COC4)C3)CC[C@]3(C)[C@H](C(=O)C=C4[C@@]5(C)C=C(C#N)C(=O)C(C)(C)[C@@H]5CC[C@]43C)[C@@H]2C1 [Compound T23]	1.9^e fold	0.0185 µM	2.01 ± 0.53^e fold	4.16 ± 1.19 nM	–	–	–
CC1(C)CC[C@]2(CN3NCCC3=O)CC[C@]3(C)[C@H](C(=O)C=C4[C@@]5(C)C=C(C#N)C(=O)C(C)(C)[C@@H]5CC[C@]43C)[C@@H]2C1 [Compound T51]	1.1^e fold	0.0117 µM	2.04 ± 0.73^d fold	8.55 ± 3.65 nM	–	–	–
CC1(C)CC[C@]2(NNC(=O)C(F)(F)F)CC[C@]3(C)[C@H](C(=O)C=C4[C@@]5(C)C=C(C#N)C(=O)C(C)(C)[C@@H]5CC[C@]43C)[C@@H]2C1 [Compound T56]	1.5^e fold	0.0155 µM	1.70 ± 0.32^d fold	7.04 ± 1.91 nM	–	–	–
Cn1ccn([C@]23CCC(C)(C)C[C@H]2[C@H]2C(=O)C=C4[C@@]5(C)C=C(C#N)C(=O)C(C)(C)[C@@H]5CC[C@@]4(C)[C@]2(C)CC3)c1=O [Compound T46]	3.0^e fold	0.0316 µM	2.62 ± 0.10^d fold	10.7 ± 1.35 nM	–	–	–
